Data on 40 compounds can be found in patent US8362065B2, “Carbazole carboxamide compounds useful as kinase inhibitors” (Bristol-Myers Squibb Company, priority 2008, dated 2013).

The test system of one assay is Ramos RA1 B cells. As to the kind of experiment: Ramos FLIPR Assay. The settings on record: goat anti-human IgM 2.5 μg/mL, peak intracellular calcium, read-out: IC50 for Inhibition of Ramos FLIPR assay. Format: cell-based. Background: Calcium assays in cells follow changes in intracellular calcium, usually with a dye or a luminescent sensor.
The next assay concerns the target T1, human recombinant Btk (Homo sapiens, UniProt Q06187).
T1 construct: purchased Invitrogen Corporation
As to the kind of experiment: Human Recombinant Btk Enzyme Assay. The format is biochemical. The following applies: human recombinant Btk 1 nM, ATP 20 μM, 60 min at room temperature; read-out: IC50 for Inhibition of Btk.

T1 sequence (Q06187 whole entry): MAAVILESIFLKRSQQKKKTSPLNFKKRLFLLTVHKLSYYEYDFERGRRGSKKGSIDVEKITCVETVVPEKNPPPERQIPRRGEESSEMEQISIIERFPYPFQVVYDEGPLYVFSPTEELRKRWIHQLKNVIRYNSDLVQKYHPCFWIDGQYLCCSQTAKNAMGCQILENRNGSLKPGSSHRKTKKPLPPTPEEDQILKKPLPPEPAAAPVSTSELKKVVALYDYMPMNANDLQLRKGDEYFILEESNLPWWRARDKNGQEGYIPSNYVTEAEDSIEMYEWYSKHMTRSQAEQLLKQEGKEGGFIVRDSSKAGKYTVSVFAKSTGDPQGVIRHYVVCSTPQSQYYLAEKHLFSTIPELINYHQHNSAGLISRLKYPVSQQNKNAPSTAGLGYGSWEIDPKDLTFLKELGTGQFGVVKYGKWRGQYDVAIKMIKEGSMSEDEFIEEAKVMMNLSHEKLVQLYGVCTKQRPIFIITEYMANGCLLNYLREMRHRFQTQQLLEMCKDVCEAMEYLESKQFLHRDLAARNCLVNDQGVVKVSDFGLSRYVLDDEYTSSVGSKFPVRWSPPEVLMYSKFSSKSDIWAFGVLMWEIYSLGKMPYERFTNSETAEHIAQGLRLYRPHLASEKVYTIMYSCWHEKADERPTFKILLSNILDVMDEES

Broadly, the IC50 is the concentration needed to halve the response being measured. On to `CN1CCN(C(=O)c2ccc3c(c2)[nH]c2c(C(N)=O)ccc(-c4c(F)cc(NC(=O)c5ccc(F)cc5)cc4F)c23)CC1` [Example 5-48], for which the IC50 in the assay with Ramos RA1 B cells was determined as 1400 nM. Turning to `Cc1ccc(NC(=O)Nc2cccc(-c3ccc(C(N)=O)c4[nH]c5cc(C(=O)N6CCN(C)CC6)ccc5c34)c2C)cc1C` [Example 8-1, 4-(3-(3-(3,4-dimethylphenyl)ureido)-2-methylphenyl)-7-(4-methylpiperazine-1-carbonyl)-9H-carbazole-1-carboxamide], the IC50 in the assay on Ramos RA1 B cells amounted to 5400 nM. As for `Cc1c(Nc2ncnc3cc(Cl)ccc23)cccc1-c1ccc(C(N)=O)c2[nH]c3cc(C(=O)N4CCN(C)CC4)ccc3c12` [Example 11-6, 4-(3-(7-chloroquinazolin-4-ylamino)-2-methylphenyl)-7-(4-methylpiperazine-1-carbonyl)-9H-carbazole-1-carboxamide], the IC50 in the assay with Ramos RA1 B cells came out at 280 nM.

As for `Cc1c(N)cccc1-c1ccc(C(N)=O)c2[nH]c3c(c12)CCC(NC(=O)OCc1ccccc1)C3` (stereo not shown) [Example 51-1, benzyl 5-(3-amino-2-methylphenyl)-8-carbamoyl-2,3,4,9-tetrahydro-1H-carbazol-2-ylcarbamate], the IC50 at human recombinant Btk came to 400 nM.

For the compound `Cc1c(-c2ccc(C(N)=O)c3[nH]c4cc(NC(=O)OCc5ccccc5)ccc4c23)cccc1N1Cc2cc(C(C)(C)C)ccc2C1=O` [Example 51-4, benzyl 5-(3-(5-tert-butyl-1-oxoisoindolin-2-yl)-2-methylphenyl)-8-carbamoyl-9H-carbazol-2-ylcarbamate], the IC50 on human recombinant Btk worked out at 1600 nM. Take `Cc1c(NC(=O)c2ccc(F)cn2)cccc1-c1ccc(C(N)=O)c2[nH]c3cc(NC(=O)OCc4ccccc4)ccc3c12` [Example 52-1, benzyl 8-carbamoyl-5-(3-(5-fluoropicolinamido)-2-methylphenyl)-9H-carbazol-2-ylcarbamate]: the IC50 on human recombinant Btk stood at 520 nM. The same measure, in the same setting: the same measure for `Cc1c(NC(=O)c2ccccn2)cccc1-c1ccc(C(N)=O)c2[nH]c3c(c12)CCC(NC(=O)OCc1ccccc1)C3` (stereo not shown) [Example 52-2, benzyl 8-carbamoyl-5-(2-methyl-3-(picolinamido)phenyl)-2,3,4,9-tetrahydro-1H-carbazol-2-ylcarbamate]: 520 nM; for `Cc1c(NC(=O)c2ccc(F)cc2)cccc1-c1ccc(C(N)=O)c2[nH]c3cc(N(Cc4ccccc4)Cc4ccccc4)ccc3c12` [Example 54-7, 7-(dibenzylamino)-4-(3-(4-fluorobenzamido)-2-methylphenyl)-9H-carbazole-1-carboxamide]: 830 nM; for `Cc1c(NC(=O)c2ccc(F)cc2)cccc1-c1ccc(C(N)=O)c2[nH]c3cc(NC(=O)[C@H](C)N)ccc3c12` [Example 57-3, 7-((S)-2-aminopropanamido)-4-(3-(4-fluorobenzamido)-2-methylphenyl)-9H-carbazole-1-carboxamide]: 2.1 nM. On to `Cc1c(NC(=O)c2ccc(F)cc2)cccc1-c1ccc(C(N)=O)c2[nH]c3cc(NC(=O)Cc4ccncc4)ccc3c12` [Example 57-13], for which the IC50 on human recombinant Btk came to 15 nM.

Consider `Cc1c(NC(=O)c2ccc(F)cc2)cccc1-c1ccc(C(N)=O)c2[nH]c3cc(NC(=O)CCCN4CCOCC4)ccc3c12` [Example 57-16], for which the IC50 on human recombinant Btk was determined as 2.1 nM. Turning to `Cc1c(NC(=O)c2ccc(F)cc2)cccc1-c1ccc(C(N)=O)c2[nH]c3cc(NC(=O)CCN4CCOCC4)ccc3c12` [Example 57-18], the concentration for half-maximal inhibition (IC50) on human recombinant Btk turned out to be 2.2 nM. In the case of `Cc1c(NC(=O)c2ccc(F)cc2)cccc1-c1ccc(C(N)=O)c2[nH]c3cc(NC(=O)c4ccc(C#N)cc4)ccc3c12` [Example 57-20], the IC50 at human recombinant Btk amounted to 15 nM.

Take `Cc1c(NC(=O)c2ccc(F)cc2)cccc1-c1ccc(C(N)=O)c2[nH]c3cc(NC(=O)CN)ccc3c12` [Example 57-37]: the IC50 at human recombinant Btk turned out to be 1.8 nM. As for `Cc1c(NC(=O)c2nccn2C)cccc1-c1ccc(C(N)=O)c2[nH]c3cc(NC(=O)NC(C)C)ccc3c12` [Example 60-1, 7-(3-isopropylureido)-4-(2-methyl-3-(1-methyl-1H-imidazole-2-carboxamido)phenyl)-9H-carbazole-1-carboxamide], at human recombinant Btk, the IC50 was found to be 18 nM. Take `Cc1c(NC(=O)c2ccc(F)cc2)cccc1-c1ccc(C(N)=O)c2[nH]c3cc(NC4CCN(C)CC4)ccc3c12` [Example 61-2]: at human recombinant Btk, the half-inhibitory concentration (IC50) was determined as 2.2 nM. For `Cc1ccc2c(c1)CN(c1cncc(-c3ccc(C(N)=O)c4[nH]c5cc(NC(C)C)ccc5c34)c1C)C2=O` [Example 66-2, 7-(isopropylamino)-4-(4-methyl-5-(5-methyl-1-oxoisoindolin-2-yl)pyridin-3-yl)-9H-carbazole-1-carboxamide], the concentration for half-maximal inhibition (IC50) on human recombinant Btk stood at 16 nM. With `Cc1ccc2c(c1)C(=O)N(c1cccc(-c3ccc(C(N)=O)c4[nH]c5cc(N6CCCC6=O)ccc5c34)c1C)C2` [Example 66-16], on human recombinant Btk, the IC50 was determined as 2 nM. For the compound `Cc1c(-c2ccc(C(N)=O)c3[nH]c4cc(NC(=O)C(C)(C)C)ccc4c23)cccc1N1Cc2cc(F)ccc2C1=O` [Example 66-34], the IC50 at human recombinant Btk was found to be 16 nM. As for `Cc1ccc2c(c1)C(=O)N(c1cccc(-c3ccc(C(N)=O)c4[nH]c5cc(N6CCC(C)(C)C6=O)ccc5c34)c1C)C2` [Example 66-37], the half-inhibitory concentration (IC50) on human recombinant Btk is 15 nM. Consider `Cc1c(-c2ccc(C(N)=O)c3[nH]c4cc(NCC(O)CO)ccc4c23)cccc1N1Cc2ccccc2C1=O` (stereo not shown) [Example 67-1, 7-(2,3-dihydroxypropylamino)-4-(2-methyl-3-(1-oxoisoindolin-2-yl)phenyl)-9H-carbazole-1-carboxamide], for which, at human recombinant Btk, the IC50 stood at 2.2 nM. Take `Cc1c(-c2ccc(C(N)=O)c3[nH]c4cc(C(O)CO)ccc4c23)cccc1N1Cc2ccc(F)cc2C1=O` (stereo not shown) [Example 70-9]: the half-inhibitory concentration (IC50) at human recombinant Btk came out at 1.5 nM. For the compound `Cc1c(-c2ccc(C(N)=O)c3[nH]c4cc(C(O)CO)ccc4c23)cccc1N1Cc2ccc(F)cc2C1=O` (stereo not shown) [Example 70-10], at human recombinant Btk, the IC50 was 1 nM. In the case of `Cc1ccc2c(c1)C(=O)N(c1cccc(-c3ccc(C(N)=O)c4[nH]c5cc(C(O)CO)ccc5c34)c1C)C2` (stereo not shown) [Example 70-11, 7-(1,2-dihydroxyethyl)-4-(2-methyl-3-(6-methyl-1-oxoisoindolin-2-yl)phenyl)-9H-carbazole-1-carboxamide], the IC50 on human recombinant Btk was determined as 1.4 nM. `CC(C)(O)C1CCc2c([nH]c3c(C(N)=O)ccc(Br)c23)C1` (stereo not shown) [Example 73-1, 5-bromo-2-(2-hydroxypropan-2-yl)-2,3,4,9-tetrahydro-1H-carbazole-8-carboxamide]: at human recombinant Btk, the IC50 amounted to 540 nM. Regarding `Cc1c(-c2ccc(C(N)=O)c3[nH]c4cc(C(C)(C)O)ccc4c23)cccc1-n1ccn2ccnc2c1=O` [Example 76-2, 7-(2-hydroxypropan-2-yl)-4-(2-methyl-3-(8-oxoimidazo[1,2-a]pyrazin-7(8 H)-yl)phenyl)-9H-carbazole-1-carboxamide], on human recombinant Btk, the IC50 turned out to be 1.3 nM.

For the compound `Cc1c(-c2ccc(C(N)=O)c3[nH]c4c(c23)CCC(C(C)(C)O)C4)cccc1-n1c(C)nc2ccccc2c1=O` (stereo not shown) [Example 76-10, 2-(2-hydroxypropan-2-yl)-5-(2-methyl-3-(2-methyl-4-oxoquinazolin-3(4H)-yl)phenyl)-2,3,4,9-tetrahydro-1H-carbazole-8-carboxamide], the IC50 at human recombinant Btk came to 18 nM. `Cc1c(-c2ccc(C(N)=O)c3[nH]c4cc(C(C)(C)O)ccc4c23)cccc1N1Cc2ccncc2C1=O` [Example 76-18]: the concentration for half-maximal inhibition (IC50) on human recombinant Btk came out at 1.8 nM. Still for that read-out and setting: the same measure for `Cc1c(-c2ccc(C(N)=O)c3[nH]c4c(c23)CCC(C(C)(C)O)C4)cccc1-n1cnc2cccc(F)c2c1=O` (stereo not shown) [Example 76-41]: 18 nM; for `Cc1c(-c2ccc(C(N)=O)c3[nH]c4c(c23)CCC(C(C)(C)O)C4)cccc1N1Cc2ccc(C(F)(F)F)cc2C1=O` (stereo not shown) [Example 76-44]: 18 nM. With `Cc1c(NC(=O)c2nccs2)cccc1-c1ccc(C(N)=O)c2[nH]c3cc(N4CCN(C)CC4)ccc3c12` [Example 77-2, N-(3-(1-carbamoyl-7-(4-methylpiperazin-1-yl)-9H-carbazol-4-yl)-2-methylphenyl)thiazole-2-carboxamide], the IC50 at human recombinant Btk amounted to 1.9 nM. Still for that read-out and setting: the same measure for `Cc1c(NC(=O)c2nccn2C)cccc1-c1ccc(C(N)=O)c2[nH]c3cc(C(O)CO)ccc3c12` (stereo not shown) [Example 78-2]: 1.6 nM. `Cc1ccc2c(Nc3cccc(-c4ccc(C(N)=O)c5[nH]c6cc(N7CCCC7=O)ccc6c45)c3C)ncnc2c1` [Example 79-2]: the 50% inhibitory concentration (IC50) at human recombinant Btk worked out at 16.9 nM.

As to `Cc1c(Nc2ncnc3ccc(F)cc23)cccc1-c1ccc(C(N)=O)c2[nH]c3cc(N4CCCC4=O)ccc3c12` [Example 79-3], the 50% inhibitory concentration (IC50) on human recombinant Btk amounted to 15 nM. For the compound `Cc1c(Nc2ncnc3cc(F)ccc23)cccc1-c1ccc(C(N)=O)c2[nH]c3cc(N4CCCC4=O)ccc3c12` [Example 79-4], the 50% inhibitory concentration (IC50) on human recombinant Btk was 16 nM. With `Cc1c(-c2ccc(C(N)=O)c3[nH]c4cc(NC(C)C)ccc4c23)cccc1-n1ccn2ccnc2c1=O` [Example 80-1, 7-(isopropylamino)-4-(2-methyl-3-(8-oxoimidazo[1,2-a]pyrazin-7(8H)-yl)phenyl)-9H-carbazole-1-carboxamide], the 50% inhibitory concentration (IC50) on human recombinant Btk was determined as 1.9 nM.

Consider `Cc1c(-c2ccc(C(N)=O)c3[nH]c4cc(C(C)(C)O)ccc4c23)cccc1-n1ccn2c(C)cnc2c1=O` [Example 81-3], for which the half-inhibitory concentration (IC50) at human recombinant Btk amounted to 1.9 nM. Regarding `Cc1c(-c2ccc(C(N)=O)c3[nH]c4cc(C(C)(C)O)ccc4c23)cccc1N1CCc2cc(F)ccc2C1=O` [Example 81-20], on human recombinant Btk, the half-maximal inhibitory concentration (IC50) was determined as 2.2 nM. As to `Cc1ccc2c(c1)C(=O)N(c1cccc(-c3ccc(C(N)=O)c4[nH]c5cc(C(COC(=O)C(C)N)OC(=O)C(C)N)ccc5c34)c1C)C2` (stereo not shown) [Example 83-3, 1-(8-carbamoyl-5-(2-methyl-3-(6-methyl-1-oxoisoindolin-2-yl)phenyl)-9H-carbazol-2-yl)ethane-1,2-diylbis(2-aminopropanoate)], on human recombinant Btk, the IC50 was 1.4 nM. Consider `Cc1ccc2c(c1)C(=O)N(c1cccc(-c3ccc(C(N)=O)c4[nH]c5cc(C(O)COC(=O)C(C)N)ccc5c34)c1C)C2` (stereo not shown) [Example 83-4, 2-(8-carbamoyl-5-(2-methyl-3-(6-methyl-1-oxoisoindolin-2-yl)phenyl)-9H-carbazol-2-yl)-2-hydroxyethyl 2-aminopropanoate], for which, at human recombinant Btk, the concentration for half-maximal inhibition (IC50) worked out at 1.1 nM.
